Source: publication PMC3103786 (Journal of medicinal chemistry, 2009)

system: nNOS; assay: In vitro NOS inhibition, hemoglobin capture assay; assay type: biochemical; settings: ratio of Ki values, eNOS over nNOS

| Structure (SMILES) | eNOS/nNOS |
| --- | --- |
| Cc1cc(N)nc(CC2CNCC2NCCNCc2cccc(Cl)c2)c1 (racemic) [compound 7, (±)-N^1-{trans-4'-[(6“-amino-4”-methylpyridin-2”-yl)methyl]pyrrolidin-3'-yl}-N^2-(3'-chlorobenzyl)ethane-1,2-diamine] | 381 |
| Cc1cc(N)nc(CC2CNCC2NCCNCc2ccc(Cl)cc2)c1 (racemic) [compound 6, (±)-N^1-{cis-4'-[(6“-amino-4”-methylpyridin-2“-yl)methyl]pyrrolidin-3'-yl}-N^2-(4'-chlorobenzyl)ethane-1,2-diamine] | 1002 |
| Nc1cccc(CC2CNCC2NCCCO)n1 (racemic) [compound 4, (±)-3-{cis-4'-[(6“-aminopyridin-2”-yl)methyl]pyrrolidin-3'-ylamino}propan-1-ol] | 39 |
